Holding throughout (assay): Kinase assay, wild type kinases
Assay type in all cases: biochemical

Assay [1] has as its target T1, RIPK4 (Homo sapiens, UniProt P57078).
T1 sequence (P57078 1-832): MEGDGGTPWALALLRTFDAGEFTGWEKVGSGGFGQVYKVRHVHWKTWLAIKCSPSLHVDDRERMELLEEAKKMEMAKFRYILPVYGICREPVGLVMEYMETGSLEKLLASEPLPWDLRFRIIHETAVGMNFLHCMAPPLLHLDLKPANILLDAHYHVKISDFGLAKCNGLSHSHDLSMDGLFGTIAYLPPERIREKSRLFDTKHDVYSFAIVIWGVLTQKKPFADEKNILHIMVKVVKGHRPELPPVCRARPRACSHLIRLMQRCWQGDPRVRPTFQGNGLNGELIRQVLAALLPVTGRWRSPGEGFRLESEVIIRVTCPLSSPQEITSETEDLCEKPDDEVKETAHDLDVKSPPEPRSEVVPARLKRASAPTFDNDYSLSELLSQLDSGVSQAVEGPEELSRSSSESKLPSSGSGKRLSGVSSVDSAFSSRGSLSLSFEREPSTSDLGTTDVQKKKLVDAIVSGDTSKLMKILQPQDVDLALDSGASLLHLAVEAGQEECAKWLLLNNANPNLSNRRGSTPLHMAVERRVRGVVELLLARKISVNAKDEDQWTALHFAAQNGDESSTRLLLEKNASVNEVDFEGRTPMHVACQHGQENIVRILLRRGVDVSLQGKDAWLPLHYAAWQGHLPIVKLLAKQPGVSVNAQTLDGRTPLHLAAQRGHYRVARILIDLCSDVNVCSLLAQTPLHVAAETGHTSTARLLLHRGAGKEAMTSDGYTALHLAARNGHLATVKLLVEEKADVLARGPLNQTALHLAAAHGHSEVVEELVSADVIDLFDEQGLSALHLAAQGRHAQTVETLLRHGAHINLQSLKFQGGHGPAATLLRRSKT
The settings on record: compound 10 μM, 10 μM ATP, duplicate (Data 1, Data 2), >100 activation, <100 inhibition; for remaining activity at 10 µM: read-out: % Enzyme Activity (relative to DMSO controls), RIPK4.

The target of assay [2] is Aurora B (Homo sapiens, UniProt Q96GD4). The settings on record: compound 10 μM, 10 μM ATP, duplicate (Data 1, Data 2), >100 activation, <100 inhibition; for remaining activity at 10 µM: read-out: % Enzyme Activity (relative to DMSO controls), Aurora B.
Chain of Aurora B (Q96GD4 whole entry): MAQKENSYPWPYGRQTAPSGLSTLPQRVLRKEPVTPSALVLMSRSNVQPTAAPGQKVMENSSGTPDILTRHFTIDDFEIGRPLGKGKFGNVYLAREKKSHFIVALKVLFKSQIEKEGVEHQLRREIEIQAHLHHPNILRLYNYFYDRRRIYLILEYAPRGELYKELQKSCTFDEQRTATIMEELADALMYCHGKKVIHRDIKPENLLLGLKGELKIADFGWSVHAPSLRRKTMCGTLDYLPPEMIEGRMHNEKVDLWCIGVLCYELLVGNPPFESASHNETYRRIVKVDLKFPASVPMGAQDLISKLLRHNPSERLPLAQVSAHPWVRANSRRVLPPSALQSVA
For assay [3], the target named is FLT1/VEGFR1 (Homo sapiens, UniProt P17948). Conditions: compound 10 μM, 10 μM ATP, duplicate (Data 1, Data 2), >100 activation, <100 inhibition; for remaining activity at 10 µM: read-out: % Enzyme Activity (relative to DMSO controls), FLT1/VEGFR1.
Chain of FLT1/VEGFR1 (P17948 27-1338): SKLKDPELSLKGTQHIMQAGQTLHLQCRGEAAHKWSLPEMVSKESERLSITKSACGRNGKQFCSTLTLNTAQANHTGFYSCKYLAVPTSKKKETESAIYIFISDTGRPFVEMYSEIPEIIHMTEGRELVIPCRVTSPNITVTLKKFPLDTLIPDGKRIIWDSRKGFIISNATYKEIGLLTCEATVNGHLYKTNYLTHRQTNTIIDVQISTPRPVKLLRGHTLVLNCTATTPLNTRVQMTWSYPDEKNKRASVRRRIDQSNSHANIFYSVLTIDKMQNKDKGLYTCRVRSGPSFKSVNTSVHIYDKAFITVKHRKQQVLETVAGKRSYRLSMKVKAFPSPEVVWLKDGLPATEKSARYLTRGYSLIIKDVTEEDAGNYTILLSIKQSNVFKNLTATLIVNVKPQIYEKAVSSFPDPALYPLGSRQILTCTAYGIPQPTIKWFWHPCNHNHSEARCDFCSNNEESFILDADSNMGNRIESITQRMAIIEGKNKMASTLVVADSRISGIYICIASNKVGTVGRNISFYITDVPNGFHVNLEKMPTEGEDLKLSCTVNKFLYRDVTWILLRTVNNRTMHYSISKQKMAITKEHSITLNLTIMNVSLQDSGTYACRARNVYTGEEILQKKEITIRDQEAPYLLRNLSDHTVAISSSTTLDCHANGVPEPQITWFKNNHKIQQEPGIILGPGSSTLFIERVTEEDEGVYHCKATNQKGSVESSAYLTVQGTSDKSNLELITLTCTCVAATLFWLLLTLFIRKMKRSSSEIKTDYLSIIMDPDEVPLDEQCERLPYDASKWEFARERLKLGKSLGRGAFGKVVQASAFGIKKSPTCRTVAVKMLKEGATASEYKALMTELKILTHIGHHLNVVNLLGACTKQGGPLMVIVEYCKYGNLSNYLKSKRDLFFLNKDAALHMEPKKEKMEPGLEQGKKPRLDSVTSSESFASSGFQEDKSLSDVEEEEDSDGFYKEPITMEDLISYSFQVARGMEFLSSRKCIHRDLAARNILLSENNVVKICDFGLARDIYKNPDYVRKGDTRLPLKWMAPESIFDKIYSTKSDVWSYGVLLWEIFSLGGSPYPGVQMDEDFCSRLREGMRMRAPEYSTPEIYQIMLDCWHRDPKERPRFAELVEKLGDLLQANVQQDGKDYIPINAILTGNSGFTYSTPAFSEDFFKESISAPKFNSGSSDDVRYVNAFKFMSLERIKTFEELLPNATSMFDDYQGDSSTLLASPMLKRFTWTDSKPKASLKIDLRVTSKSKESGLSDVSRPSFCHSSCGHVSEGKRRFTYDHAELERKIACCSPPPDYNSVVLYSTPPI
Assay [4] concerns the target TNIK (Homo sapiens, UniProt Q9UKE5). Conditions: compound 10 μM, 10 μM ATP, duplicate (Data 1, Data 2), >100 activation, <100 inhibition; for remaining activity at 10 µM: read-out: % Enzyme Activity (relative to DMSO controls), TNIK.
Assay [5] has as its target T2, NEK2 (Homo sapiens, UniProt P51955).
T2 sequence (P51955 1-445): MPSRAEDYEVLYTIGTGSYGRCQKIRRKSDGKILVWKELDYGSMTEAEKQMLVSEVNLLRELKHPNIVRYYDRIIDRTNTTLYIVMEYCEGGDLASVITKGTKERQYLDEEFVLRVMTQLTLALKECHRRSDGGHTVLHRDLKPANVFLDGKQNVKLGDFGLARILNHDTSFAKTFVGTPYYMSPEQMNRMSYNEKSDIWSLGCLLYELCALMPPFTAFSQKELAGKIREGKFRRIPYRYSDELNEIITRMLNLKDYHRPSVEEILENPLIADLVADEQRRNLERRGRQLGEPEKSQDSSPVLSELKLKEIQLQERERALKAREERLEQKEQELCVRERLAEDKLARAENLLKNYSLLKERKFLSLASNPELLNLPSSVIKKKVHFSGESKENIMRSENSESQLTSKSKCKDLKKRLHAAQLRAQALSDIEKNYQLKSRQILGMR
The settings on record: compound 10 μM, 10 μM ATP, duplicate (Data 1, Data 2), >100 activation, <100 inhibition; for remaining activity at 10 µM: read-out: % Enzyme Activity (relative to DMSO controls), NEK2.

Assay [6] has as its target GSK3b (Homo sapiens, UniProt P49841). The settings on record: compound 10 μM, 10 μM ATP, duplicate (Data 1, Data 2), >100 activation, <100 inhibition; for remaining activity at 10 µM: read-out: % Enzyme Activity (relative to DMSO controls), GSK3b.

Results on 4 compounds are retold here after patent publication US11730712B2, “Functionalized long-chain hydrocarbon mono- and di-carboxylic acids and derivatives thereof, and their use for the prevention or treatment of disease” (ESPERVITA THERAPEUTICS, INC., priority 2021, dated 2023).

Several values for one entry are separate records, joined by “and”; a condition that tells them apart may be missing. Equal values may be shown once.

Chain of GSK3b (P49841 whole entry, species assumed): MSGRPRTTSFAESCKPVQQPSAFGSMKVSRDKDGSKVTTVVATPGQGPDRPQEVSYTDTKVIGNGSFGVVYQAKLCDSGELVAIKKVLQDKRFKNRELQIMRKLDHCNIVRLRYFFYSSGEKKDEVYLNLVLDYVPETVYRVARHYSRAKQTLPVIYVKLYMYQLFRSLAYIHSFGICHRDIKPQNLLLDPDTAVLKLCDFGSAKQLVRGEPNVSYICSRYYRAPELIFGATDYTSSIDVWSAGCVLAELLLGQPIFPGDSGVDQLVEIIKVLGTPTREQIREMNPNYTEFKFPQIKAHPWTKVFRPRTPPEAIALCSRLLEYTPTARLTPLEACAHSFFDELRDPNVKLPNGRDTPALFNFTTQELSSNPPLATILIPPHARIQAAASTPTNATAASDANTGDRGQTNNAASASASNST
Chain of TNIK (Q9UKE5 whole entry, species assumed): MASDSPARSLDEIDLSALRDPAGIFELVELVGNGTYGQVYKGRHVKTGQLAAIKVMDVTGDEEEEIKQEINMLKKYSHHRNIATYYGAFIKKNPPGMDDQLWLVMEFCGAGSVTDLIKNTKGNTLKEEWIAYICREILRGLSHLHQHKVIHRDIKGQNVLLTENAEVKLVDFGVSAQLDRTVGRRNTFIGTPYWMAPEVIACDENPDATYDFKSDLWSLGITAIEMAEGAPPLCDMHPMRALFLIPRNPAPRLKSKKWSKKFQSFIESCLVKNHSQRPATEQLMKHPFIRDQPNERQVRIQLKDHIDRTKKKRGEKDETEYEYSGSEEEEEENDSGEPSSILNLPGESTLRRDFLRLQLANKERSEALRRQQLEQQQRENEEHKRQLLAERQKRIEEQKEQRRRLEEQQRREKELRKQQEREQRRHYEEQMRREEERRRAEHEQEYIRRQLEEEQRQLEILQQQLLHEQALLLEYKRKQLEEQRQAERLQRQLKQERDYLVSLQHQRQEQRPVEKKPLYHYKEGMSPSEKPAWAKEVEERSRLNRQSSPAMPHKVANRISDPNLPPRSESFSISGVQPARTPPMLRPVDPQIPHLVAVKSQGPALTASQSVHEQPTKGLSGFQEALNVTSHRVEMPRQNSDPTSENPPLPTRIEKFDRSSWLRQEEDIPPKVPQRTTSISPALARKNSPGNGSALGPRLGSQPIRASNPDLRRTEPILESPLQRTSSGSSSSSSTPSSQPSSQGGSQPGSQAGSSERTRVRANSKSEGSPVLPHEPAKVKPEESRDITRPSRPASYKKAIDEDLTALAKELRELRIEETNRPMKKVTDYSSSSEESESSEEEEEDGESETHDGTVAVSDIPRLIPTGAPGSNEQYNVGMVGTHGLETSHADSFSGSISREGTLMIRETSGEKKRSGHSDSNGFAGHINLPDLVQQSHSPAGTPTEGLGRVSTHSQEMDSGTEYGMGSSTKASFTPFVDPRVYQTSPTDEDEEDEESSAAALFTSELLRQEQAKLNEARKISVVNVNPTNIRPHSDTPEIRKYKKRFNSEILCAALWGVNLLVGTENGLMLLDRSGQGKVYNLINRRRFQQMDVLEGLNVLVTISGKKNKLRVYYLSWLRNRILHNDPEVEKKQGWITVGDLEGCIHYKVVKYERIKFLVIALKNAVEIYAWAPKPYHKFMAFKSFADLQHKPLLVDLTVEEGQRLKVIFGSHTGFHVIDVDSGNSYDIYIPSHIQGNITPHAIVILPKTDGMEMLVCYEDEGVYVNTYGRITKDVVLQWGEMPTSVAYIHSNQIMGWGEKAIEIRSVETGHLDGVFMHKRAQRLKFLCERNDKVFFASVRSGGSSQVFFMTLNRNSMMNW

For `CC(C)(CCCCc1ccc(CCCCC(C)(C)C(=O)O)cc1)C(=O)O` [Compound I-1, 6-[4-(5-carboxy-5-methylhexyl)-phenyl]-2,2-dimethylhexanoic acid], the remaining activity at 10 µM in assay [1] was determined as 45.1%; in assay [2], 69%; in assay [3], 90.3%; in assay [4], 106%; in assay [5] it was 90.3%; in assay [6], 83.2%.

For `CC(C)(CCCCc1ccc(CCCCC(C)(C)C(=O)SCCNC(=O)CCNC(=O)[C@H](O)C(C)(C)COP(=O)(O)OP(=O)(O)OC[C@H]2O[C@@H](n3cnc4c(N)ncnc43)[C@H](O)[C@@H]2OP(=O)(O)O)cc1)C(=O)O` [Compound I-1-CoA, 6-[4-(5-carboxy-5-methylhexyl)-phenyl]-2,2-dimethylhexanoic acid Coenzyme A ester], the “% Enzyme Activity (relative to DMSO controls), RIPK4” value in assay [1] was 32.26% and 29.70%. Also, the “% Enzyme Activity (relative to DMSO controls), Aurora B” value in assay [2] was 36.79% and 32.68%. The “% Enzyme Activity (relative to DMSO controls), FLT1/VEGFR1” value in assay [3] is 84.17% and 82.94%. Moreover, the “% Enzyme Activity (relative to DMSO controls), TNIK” value in assay [4] was 39.22% and 36.50%. The “% Enzyme Activity (relative to DMSO controls), NEK2” value in assay [5] was 0.89% and 0.63%. Moreover, in assay [6], the “% Enzyme Activity (relative to DMSO controls), GSK3b” value was 63.29% and 62.44%.

For the compound `CC(C)(CCCCc1cccc(CCCCC(C)(C)C(=O)O)c1)C(=O)O` [Compound I-32, 6-[3-(5-carboxy-5-methylhexyl)-phenyl]-2,2-dimethylhexanoic acid], the remaining activity at 10 µM in assay [1] is 43%; in assay [2], 71.4%; in assay [3], 92.3%; in assay [4], 101%; in assay [5], 87.8%; in assay [6], 78%.

For the compound `CC(C)(CCCCc1cccc(CCCCC(C)(C)C(=O)SCCNC(=O)CCNC(=O)[C@H](O)C(C)(C)COP(=O)(O)OP(=O)(O)OC[C@H]2O[C@@H](n3cnc4c(N)ncnc43)[C@H](O)[C@@H]2OP(=O)(O)O)c1)C(=O)O` [Compound I-32-CoA, 6-[3-(5-Carboxy-5-methylhexyl)-phenyl]-2,2-dimethylhexanoic acid Coenzyme A Ester], the “% Enzyme Activity (relative to DMSO controls), RIPK4” value in assay [1] was 33.02% and 32.84%. Also, the “% Enzyme Activity (relative to DMSO controls), Aurora B” value in assay [2] is 33.27% and 30.67%. Besides, the “% Enzyme Activity (relative to DMSO controls), FLT1/VEGFR1” value in assay [3] was 52.06% and 51.61%. For the same compound, the “% Enzyme Activity (relative to DMSO controls), TNIK” value in assay [4] is 70.02% and 66.13%. For the same compound, the “% Enzyme Activity (relative to DMSO controls), NEK2” value in assay [5] was 35.98% and 34.99%. Besides, the “% Enzyme Activity (relative to DMSO controls), GSK3b” value in assay [6] is 23.69% and 22.51%.
